The values below come from US8278480B2, “Salts, aqueous liquid compositions containing salts of S-(+)-abscisic acid and methods of their preparation” (Valent BioSciences Corporation, priority 2008, dated 2012).

Data set [1] has as its system tomato leaf transpiration. The data set can be described thus: Tomato leaf transpiration inhibition after foliar spray (LI-1600 porometer). It is filed as in vivo, Tomato (variety: Rutgers). Particulars: for Transpiration rate (% of control), 1 day after treatment: day 1; for Transpiration rate (% of control), 2 days after treatment: day 2; for Transpiration rate (% of control), 3 days after treatment: day 3; for Transpiration rate (% of control), 4 days after treatment: day 4; for Transpiration rate (% of control), 7 days after treatment: day 7; for ABA dose to achieve 50% inhibition of transpiration: from linear regression of 3-day average transpiration rate on log dose. The method, then: (§1) Preparation of plant specimens for use in the treatment studies of the EXAMPLES that follow was carried out as follows. Tomato (variety: Rutgers) seeds were sown in an 18-cell flat filled with Promix PGX (available from Premier Horticulture Inc., Quakertown Pa.) and grown for 3 weeks to allow for germination and initial growth. Plants were then transplanted into pots (18 cm in diameter and 18 cm in height), filled with Promix BX (available from Premier Horticulture Inc., Quakertown Pa.), and grown for one or two more weeks before treatment, depending on temperature and available light. Plants received daily irrigation and weekly fertilizer (1 g/L all purpose fertilizer 20-20-20, available from The Scotts Company, Marysville, Ohio).
(§2) All treatment solutions were made up with distilled water. The (S)-(+)-abscisic acid (95% active ingredient) is available from Lomon BioTechnology Co., Ltd. (Shichuan, China). The prior art aqueous solution composition of the ammonium salt of (S)-(+)-abscisic acid as prepared in Example 11 above was used as a positive treatment control for most of the studies.
(§3) All experiments were conducted using a randomized complete block experimental design. Solutions of (S)-(+)-abscisic acid and blank treatments (plain water) were applied by spray to the aerial parts of the tomato plants at the rate of 24 mL per 6 plants. Plants were then placed in a transparent chamber with humidity controlled within the range of 40 to 60% relative humidity. Leaf transpiration rates were measured at 1, 2, 3, 4 and 7 days after treatment. Measurements were conducted using a LI-1600 Steady State Porometer (LI-Cor, Lincoln, Nebr.). Each day the transpiration rate of the plants of each treatment group was normalized to a percentage of the transpiration rate of untreated plants (plants sprayed with water only) in order to control for day-to-day variability in plant status caused by changes of environmental conditions such as light intensity and temperature. Data for each plant was also averaged over a 3-day period to balance the short term and long term effect of (S)-(+)-abscisic acid on tomato leaf transpiration as well as to reduce experimental variability.
The regression equation of each (S)-(+)-abscisic acid salt as well as abscisic acid concentrations for 50% inhibition of transpiration were calculated. The relative potency of two ABA salts is the reciprocal of the ratio of (S)-(+)-abscisic acid concentration required for 50% transpiration inhibition for each composition.

For data set [2], the system named is tomato shoot fresh weight. As to the kind of experiment: Tomato shoot fresh weight 7 days after treatment (growth suppression). It is filed as in vivo, Tomato (variety: Rutgers). The following applies: foliar spray. On the procedure:
as §1, §2, §3
In this experiment, the fresh weights of the aerial parts of the tomato plants were also measured at the end of the experiment, 7 days after treatments were applied, in order to assess the relative growth suppressing activity of the compositions.

The subject of data set [3] is tomato plants. As to the kind of experiment: Phytotoxicity observed on treated tomato plants. It is filed as in vivo, Tomato (variety: Rutgers). The method, then: as §3, with “variability. It is important to note that no phytotoxicity was observed on any of the plants treated with the compositions of the present invention.” for “variability.”
For data set [4] the following is noted: cited from earlier work.
[5] abbreviates: (S)-(+)-abscisic acid dose 0.3 mg, foliar spray.
The mark [6] stands for this setting: (S)-(+)-abscisic acid dose 1 mg, foliar spray.
Setting [7] is: (S)-(+)-abscisic acid dose 3 mg, foliar spray.
The mark [8] stands for this setting: (S)-(+)-abscisic acid dose 10 mg, foliar spray.
The mark [9] stands for this setting: foliar spray, 250 ppm (S)-(+)-abscisic acid (1 mg), additives as in label.
Where [10] appears, read: reciprocal of ratio of doses for 50% transpiration inhibition.
[11] abbreviates: 75 ppm (0.3 mg) (S)-(+)-abscisic acid.
Where [12] appears, read: 250 ppm (1 mg) (S)-(+)-abscisic acid, additives as in label.
The mark [13] stands for this setting: 750 ppm (3 mg) (S)-(+)-abscisic acid.
Where [14] appears, read: 2500 ppm (10 mg) (S)-(+)-abscisic acid.
[15] abbreviates: tomato plants after foliar spray.

Several values for one entry are separate records, joined by “and”; a condition that tells them apart may be missing. Identical values can stand only once. Some results are limits rather than exact numbers.

Consider `CC1=CC(=O)CC(C)(C)[C@@]1(O)/C=C/C(C)=C\C(=O)[O-].[Rb+]` [Example 1, Rubidium Salt of (S)-(+)-Abscisic Acid], for which the “Transpiration rate (% of control), Average of 3 days after treatment” value is reported as 77 % of control in data set [1] (setting [5]), 67 % of control in data set [1] (setting [6]), 54 % of control in data set [1] (setting [7]) and 39 % of control in data set [1] (setting [8]). In data set [1] (setting [9]), the “Transpiration rate (% of control), 7-Day Average” value is reported as 75.9 % of control. Besides, the “Transpiration rate (% of control), 1 day after treatment” value in data set [1] (setting [9]) is recorded as 55.8 % of control. The “Transpiration rate (% of control), 2 days after treatment” value in data set [1] (setting [9]) was 68.0 % of control. Besides, the “Transpiration rate (% of control), 3 days after treatment” value in data set [1] (setting [9]) is 76.5 % of control. The “Transpiration rate (% of control), 4 days after treatment” value in data set [1] (setting [9]) was 88.2 % of control. In addition, the “Transpiration rate (% of control), 7 days after treatment” value in data set [1] (setting [9]) is 91.0 % of control. Besides, the “ABA dose to achieve 50% inhibition of transpiration” value (“ABA dose to achieve 50% inhibition” for short) in data set [1] is recorded as 4.05 mg. In addition, the “Relative potency compared to the ammonium salt composition of Comparative Example 11” value (shortened to “Relative potency … of Comparative Example 11”) in data set [1] (setting [10]) is recorded as 2.4 times. Moreover, the “Fresh weight (g) 7 days after treatment” value in data set [2] (setting [11]) is 18.6 g; in data set [2] (setting [12]), 18.1 g; in data set [2] (setting [13]) it was 17.2 g; in data set [2] (setting [14]) it was 16.4 g. Further, the Phytotoxicity entry in data set [3] (setting [15]) was “without producing phytotoxicity”.

Consider `CC1=CC(=O)CC(C)(C)[C@@]1(O)/C=C/C(C)=C\C(=O)[O-].CCCC[N+](CCCC)(CCCC)CCCC` [Example 4, Tetrabutylammonium Salt of (S)-(+)-Abscisic Acid], for which the “Transpiration rate (% of control), Average of 3 days after treatment” value in data set [1] (setting [5]) was 84 % of control and 80 % of control; in data set [1] (setting [6]), 72 % of control and 61 % of control; in data set [1] (setting [7]) it was 56 % of control and 47 % of control; in data set [1] (setting [8]), 38 % of control and 29 % of control. For the same molecule, the “Transpiration rate (% of control), 7-Day Average” value in data set [1] (setting [9]) is on record as 70.9 % of control. For the same molecule, the “Transpiration rate (% of control), 9-Day Average” value in data set [1] (foliar spray, 250 ppm (S)-(+)-abscisic acid (1 mg), additives as in label, 9-day average) is 79.7 % of control. In data set [1] (setting [9]), the “Transpiration rate (% of control), 1 day after treatment” value is 63.4 % of control and 55.1 % of control. The “Transpiration rate (% of control), 2 days after treatment” value in data set [1] (setting [9]) was 73.9 % of control and 61.0 % of control. Further, the “Transpiration rate (% of control), 3 days after treatment” value in data set [1] (setting [9]) was 77.8 % of control and 68.3 % of control. In addition, the “Transpiration rate (% of control), 4 days after treatment” value in data set [1] (setting [9]) was 79.3 % of control and 77.6 % of control. The “Transpiration rate (% of control), 7 days after treatment” value in data set [1] (setting [9]) was 89.2 % of control and 92.4 % of control. For the same molecule, the “Transpiration rate (% of control), 9 days after treatment” value in data set [1] (foliar spray, 250 ppm (S)-(+)-abscisic acid (1 mg), additives as in label, day 9) was 94.6 % of control. Besides, the “ABA dose to achieve 50% inhibition” value in data set [1] is 4.35 mg and 2.33 mg. In data set [1] (setting [10]), the “Relative potency compared to the tributylamine salt composition of Comparative Example 14” value was 1.9 times. Further, the “Fresh weight (g) 7 days after treatment” value turned out to be 15.3 g in data set [2] (setting [11]), 14.8 g in data set [2] (setting [12]), 12.5 g in data set [2] (setting [13]) and 11.4 g in data set [2] (setting [14]). Also, the Phytotoxicity entry in data set [3] (setting [15]) is recorded as “without producing phytotoxicity”.

On to `CC1=CC(=O)CC(C)(C)[C@@]1(O)/C=C/C(C)=C\C(=O)O` [abscisic acid, 2-cis-,4-trans-(S)-(+)-abscisic acid], for which the “Solubility in propylene glycol” value in data set [4] (propylene glycol) is “poorly soluble”. In addition, in data set [4] (pure water, room / ordinary ambient temperature), the “Solubility in water (highest concentration achievable)” value is listed as at most 3000 ppm.

As for `CC1=CC(=O)CC(C)(C)[C@@]1(O)/C=C/C(C)=C\C(=O)[O-].[Cs+]` [Example 2, Cesium Salt of (S)-(+)-Abscisic Acid], the “Transpiration rate (% of control), Average of 3 days after treatment” value in data set [1] (setting [5]) is given as 72 % of control; in data set [1] (setting [6]), 57 % of control; in data set [1] (setting [7]) it was 47 % of control; in data set [1] (setting [8]), 37 % of control. Also, in data set [1] (setting [9]), the “Transpiration rate (% of control), 7-Day Average” value was 67.8 % of control. The “Transpiration rate (% of control), 1 day after treatment” value in data set [1] (setting [9]) is 47.1 % of control. The “Transpiration rate (% of control), 2 days after treatment” value in data set [1] (setting [9]) is 59.0 % of control. Also, the “Transpiration rate (% of control), 3 days after treatment” value in data set [1] (setting [9]) is given as 63.9 % of control. The “Transpiration rate (% of control), 4 days after treatment” value in data set [1] (setting [9]) is 77.8 % of control. The “Transpiration rate (% of control), 7 days after treatment” value in data set [1] (setting [9]) is given as 91.1 % of control. The “ABA dose to achieve 50% inhibition” value in data set [1] is reported as 2.41 mg. Moreover, in data set [1] (setting [10]), the “Relative potency … of Comparative Example 11” value was 3.2 times and 2.8 times. Besides, the “Fresh weight (g) 7 days after treatment” value was found to be 16.2 g in data set [2] (setting [11]), 15.3 g in data set [2] (setting [12]), 14.7 g in data set [2] (setting [13]) and 11.3 g in data set [2] (setting [14]). Further, the Phytotoxicity entry in data set [3] (setting [15]) is reported as “without producing phytotoxicity”.

With `CC1=CC(=O)CC(C)(C)[C@@]1(O)/C=C/C(C)=C\C(=O)[O-].C[N+](C)(C)CCO` [Example 5, Choline Salt of (S)-(+)-abscisic Acid], the “Transpiration rate (% of control), Average of 3 days after treatment” value in data set [1] (setting [5]) is recorded as 78 % of control; in data set [1] (setting [6]), 63 % of control; in data set [1] (setting [7]), 53 % of control; in data set [1] (setting [8]) it was 41 % of control. Further, in data set [1] (setting [9]), the “Transpiration rate (% of control), 7-Day Average” value is recorded as 72.5 % of control. For the same molecule, the “Transpiration rate (% of control), 1 day after treatment” value in data set [1] (setting [9]) was 52.3 % of control. For the same molecule, the “Transpiration rate (% of control), 2 days after treatment” value in data set [1] (setting [9]) is recorded as 63.7 % of control. For the same molecule, the “Transpiration rate (% of control), 3 days after treatment” value in data set [1] (setting [9]) is reported as 73.8 % of control. Besides, the “Transpiration rate (% of control), 4 days after treatment” value in data set [1] (setting [9]) is 79.0 % of control. Besides, the “Transpiration rate (% of control), 7 days after treatment” value in data set [1] (setting [9]) is given as 93.4 % of control. Moreover, the “ABA dose to achieve 50% inhibition” value in data set [1] is 4.02 mg. For the same molecule, the “Relative potency … of Comparative Example 11” value in data set [1] (setting [10]) was 2.6 times and 4.2 times. Also, the “Fresh weight (g) 7 days after treatment” value is on record as 18.2 g in data set [2] (setting [11]), 17.5 g in data set [2] (setting [12]), 16.8 g in data set [2] (setting [13]) and 16.0 g in data set [2] (setting [14]). In addition, the Phytotoxicity entry in data set [3] (in vivo) is given as “without producing phytotoxicity”.
